Reference: patent publication US9738642B2, “Triazolopyridine ether derivatives and their use in neurological and pyschiatric disorders” (BRISTOL-MYERS SQUIBB COMPANY, priority 2013, dated 2017)
Where a name gives a salt, the structure may show the parent alone.

Molecular target: T1, human mGluR2 (Homo sapiens, UniProt Q14416)
T1 construct: expressed in transfected cells; host or cells: HEK293 clonal line
Assay: mGluR2 cAMP assay
Format: cell-based
Details: clonally expressed human mGluR2 in HEK293; 1 μM forskolin, 1 μM LY-341495, 30 min; CISBIO cAMP kit; read-out: EC50 (nM), activity in mGluR2 cAMP assay
Procedure: On the day of the assay, media was removed, cells washed with PBS, cells harvested and pelleted by centrifugation. Cell pellets were resuspended in stimulation buffer without forskolin and counted. […] A standard curve was created using a top concentration of cAMP of 1 μM in the stimulation buffer, 1:3 dilutions over 14 points in the absence of cells. […] In house software converted the fluorescence value ratios to units of cAMP concentration, which is then used to calculate % inhibition for each test compound. MGluR2 cAMP Assay Materials and Methods. […] Buffer without forskolin was used as a negative control. Solutions of D2 and cryptate detection reagents from the CISBIO dynamic cAMP kit (62AM4PEJ) were diluted 1:40 in lysis buffer. Lysis buffer consisted of 50 mM Phosphate Buffer pH 7.0, 800 mM Potassium Fluoride, 0.2% BSA, and 1.0% Triton. Assay reaction was terminated by addition of detection reagents in lysis buffer. One hour later, plates were read on a PE Viewlux. Data was extracted, and concentration response curves generated by fitting the data to a standard 4 parameter logistic equation from which EC50 values were determined.

T1 sequence (Q14416 19-872): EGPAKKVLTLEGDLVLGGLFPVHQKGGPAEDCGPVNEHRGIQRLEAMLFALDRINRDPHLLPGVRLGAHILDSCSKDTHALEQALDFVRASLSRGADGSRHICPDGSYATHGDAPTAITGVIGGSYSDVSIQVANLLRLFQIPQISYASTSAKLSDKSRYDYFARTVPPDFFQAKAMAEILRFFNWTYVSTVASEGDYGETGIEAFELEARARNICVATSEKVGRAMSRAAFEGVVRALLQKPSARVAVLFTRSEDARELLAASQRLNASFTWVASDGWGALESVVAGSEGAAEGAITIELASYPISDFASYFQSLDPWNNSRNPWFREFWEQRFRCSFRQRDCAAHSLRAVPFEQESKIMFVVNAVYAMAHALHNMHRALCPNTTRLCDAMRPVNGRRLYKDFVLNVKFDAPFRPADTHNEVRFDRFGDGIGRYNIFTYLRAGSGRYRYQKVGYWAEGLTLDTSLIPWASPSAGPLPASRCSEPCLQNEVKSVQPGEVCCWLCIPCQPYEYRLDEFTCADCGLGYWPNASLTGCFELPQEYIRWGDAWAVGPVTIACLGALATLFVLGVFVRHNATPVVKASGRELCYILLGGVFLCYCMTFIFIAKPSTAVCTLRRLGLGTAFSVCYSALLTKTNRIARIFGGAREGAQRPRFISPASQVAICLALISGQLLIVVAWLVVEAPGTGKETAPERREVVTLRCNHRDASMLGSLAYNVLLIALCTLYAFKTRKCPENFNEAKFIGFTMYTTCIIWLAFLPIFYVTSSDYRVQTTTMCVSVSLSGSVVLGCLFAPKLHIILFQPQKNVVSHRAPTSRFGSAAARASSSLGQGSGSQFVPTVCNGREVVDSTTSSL

Row | SMILES | EC50 [nM]
1 | CO[C@]1(c2ccc(F)cc2)CC[C@H](Oc2ccn3c(CC4CC4)nnc3c2C(F)(F)F)CC1 [Example 19, 3-(Cyclopropylmethyl)-7-((1s,4s)-4-(4-fluorophenyl)-4-methoxycyclohexyloxy)-8-(trifluoromethyl)-[1,2,4]triazolo[4,3-a]pyridine] | 0.3
2 | FC(F)(F)c1c(O[C@H]2CC[C@H](c3ccccc3)CC2)ccn2c(CC3CC3)nnc12 [Example 20, 3-(Cyclopropylmethyl)-7-((1r,4r)-4-phenylcyclohexyloxy)-8-(trifluoromethyl)-[1,2,4]triazolo[4,3-a]pyridine] | 0.4
3 | CC(C)(COc1ccn2c(COCC(F)(F)F)nnc2c1C(F)(F)F)Oc1ccc(Cl)cc1 [Example 22, 7-(2-(4-Chlorophenoxy)-2-methylpropoxy)-3-((2,2,2-trifluoroethoxy)methyl)-8-(trifluoromethyl)-[1,2,4]triazolo[4,3-a]pyridine, TFA salt] | 4.9
4 | COCc1nnc2c(C(F)(F)F)c(OCC(C)(C)Oc3ccc(Cl)cc3)ccn12 [Example 23, 7-(2-(4-Chlorophenoxy)-2-methylpropoxy)-3-(methoxymethyl)-8-(trifluoromethyl)-[1,2,4]triazolo[4,3-a]pyridine, TFA salt] | 120
5 | O[C@]1(c2ccc(F)c(F)c2)CC[C@H](Oc2ccn3c(CC4CC4)nnc3c2C(F)(F)F)CC1 [Example 26, (1s,4s)-4-(3-(Cyclopropylmethyl)-8-(trifluoromethyl)-[1,2,4]triazolo[4,3-a]pyridin-7-yloxy)-1-(3,4-difluorophenyl)cyclohexanol, TFA salt] | 0.8
6 | FC(F)(F)COCc1nnc2c(C(F)(F)F)c(O[C@H]3CC[C@H](c4ccccc4)CC3)ccn12 [Example 27, 7-((1r,4r)-4-Phenylcyclohexyloxy)-3-((2,2,2-trifluoroethoxy)methyl)-8-(trifluoromethyl)-[1,2,4]triazolo[4,3-a]pyridine] | 0.6
7 | CO[C@]1(c2ccc(F)c(F)c2)CC[C@H](Oc2ccn3c(CC4CC4)nnc3c2C(F)(F)F)CC1 [Example 28, 3-(Cyclopropylmethyl)-7-((1s,4s)-4-(3,4-difluorophenyl)-4-methoxycyclohexyloxy)-8-(trifluoromethyl)-[1,2,4]triazolo[4,3-a]pyridine] | 0.7
8 | FC(F)(F)c1c(OCC2(c3ccc(Cl)cc3)CC2)ccn2c(CC3CC3)nnc12 [Example 29, 7-((1-(4-Chlorophenyl)cyclopropyl)methoxy)-3-(cyclopropylmethyl)-8-(trifluoromethyl)-[1,2,4]triazolo[4,3-a]pyridine] | 13
9 | Fc1ccc(C2(COc3ccn4c(CC5CC5)nnc4c3C(F)(F)F)CC2)cc1 [Example 30, 3-(Cyclopropylmethyl)-7-((1-(4-fluorophenyl)cyclopropyl)methoxy)-8-(trifluoromethyl)-[1,2,4]triazolo[4,3-a]pyridine] | 16
10 | FC(F)(F)c1c(OC[C@@H]2C[C@H]2c2ccc(Cl)cc2)ccn2c(CC3CC3)nnc12 [Example 33, 7-(((1R,2R)-2-(4-Chlorophenyl)cyclopropyl)methoxy)-3-(cyclopropylmethyl)-8-(trifluoromethyl)-[1,2,4]triazolo[4,3-a]pyridine] | 4
11 | FC(F)(F)c1c(OC[C@H]2C[C@@H]2c2ccc(Cl)cc2)ccn2c(CC3CC3)nnc12 [Example 34, 7-(((1S,2S)-2-(4-Chlorophenyl)cyclopropyl)methoxy)-3-(cyclopropylmethyl)-8-(trifluoromethyl)-[1,2,4]triazolo[4,3-a]pyridine] | 1.6
12 | N#C[C@]1(c2cccc(F)c2)C[C@H](Oc2ccn3c(CC4CC4)nnc3c2C(F)(F)F)C1 [Example 46, (1s,3s)-3-(3-(Cyclopropylmethyl)-8-(trifluoromethyl)-[1,2,4]triazolo[4,3-a]pyridin-7-yloxy)-1-(3-fluorophenyl)cyclobutanecarbonitrile] | 0.5
13 | N#C[C@]1(c2ccc(F)cc2)C[C@H](Oc2ccn3c(CC4CC4)nnc3c2C(F)(F)F)C1 [Example 50, (1s,3s)-3-(3-(Cyclopropylmethyl)-8-(trifluoromethyl)-[1,2,4]triazolo[4,3-a]pyridin-7-yloxy)-1-(4-fluorophenyl)cyclobutanecarbonitrile] | 2.7
14 | Fc1ccc(C2(COc3ccn4c(CC5CC5)nnc4c3C(F)(F)F)CC2)c(F)c1 [Example 51, 3-(Cyclopropylmethyl)-7-((1-(2,4-difluorophenyl)cyclopropyl)methoxy)-8-(trifluoromethyl)-[1,2,4]triazolo[4,3-a]pyridine] | 43
15 | Fc1ccc([C@H]2C[C@@H]2COc2ccn3c(CC(F)(F)F)nnc3c2C(F)(F)F)cc1 [Example 52, 7-(((1S,2S)-2-(4-Fluorophenyl)cyclopropyl)methoxy)-3-(2,2,2-trifluoroethyl)-8-(trifluoromethyl)-[1,2,4]triazolo[4,3-a]pyridine] | 1.6
16 | COc1ccccc1[C@]1(C#N)C[C@@H](Oc2ccn3c(CC4CC4)nnc3c2C(F)(F)F)C1 [Example 53, (1s,3s)-3-(3-(Cyclopropylmethyl)-8-(trifluoromethyl)-[1,2,4]triazolo[4,3-a]pyridin-7-yloxy)-1-(2-methoxyphenyl)cyclobutanecarbonitrile] | 0.3
17 | N#C[C@]1(c2cc(F)cc(F)c2)C[C@H](Oc2ccn3c(CC4CC4)nnc3c2C(F)(F)F)C1 [Example 54, (1s,3s)-3-(3-(Cyclopropylmethyl)-8-(trifluoromethyl)-[1,2,4]triazolo[4,3-a]pyridin-7-yloxy)-1-(3,5-difluorophenyl)cyclobutanecarbonitrile] | 2.2

Row | SMILES | EC50 [nM]
18 | Fc1cc(F)cc(C2(COc3ccn4c(CC5CC5)nnc4c3C(F)(F)F)CC2)c1 [Example 55, 3-(Cyclopropylmethyl)-7-((1-(3,5-difluorophenyl)cyclopropyl)methoxy)-8-(trifluoromethyl)-[1,2,4]triazolo[4,3-a]pyridine] | 20
19 | FC(F)(F)c1c(OCC2(c3cc(Cl)cc(Cl)c3)CC2)ccn2c(CC3CC3)nnc12 [Example 56, 3-(Cyclopropylmethyl)-7-((1-(3,5-dichlorophenyl)cyclopropyl)methoxy)-8-(trifluoromethyl)-[1,2,4]triazolo[4,3-a]pyridine] | 22
20 | FC(F)(F)c1c(O[C@H]2C[C@H](c3ccccc3)C2)ccn2c(CC3CC3)nnc12 [Example 57, 3-(Cyclopropylmethyl)-7-((1r,3r)-3-phenylcyclobutoxy)-8-(trifluoromethyl)-[1,2,4]triazolo[4,3-a]pyridine] | 0.5
21 | Clc1ccc(COc2ccn3c(CC4CC4)nnc3c2Cl)cc1 [Example 58, 8-Chloro-7-(4-chlorobenzyloxy)-3-(cyclopropylmethyl)-[1,2,4]triazolo[4,3-a]pyridine, TFA salt] | 60
22 | CC(Oc1ccn2c(CC3CC3)nnc2c1Cl)c1ccc(F)cc1 (stereo not drawn) [Example 59, 8-Chloro-3-(cyclopropylmethyl)-7-(1-(4-fluorophenyl)ethoxy)-[1,2,4]triazolo[4,3-a]pyridine] | 530
23 | Clc1cccc(COc2ccn3c(CC4CC4)nnc3c2Cl)c1 [Example 60, 8-Chloro-7-(3-chlorobenzyloxy)-3-(cyclopropylmethyl)-[1,2,4]triazolo[4,3-a]pyridine] | 18
24 | COc1cccc(COc2ccn3c(CC4CC4)nnc3c2Cl)c1 [Example 61, 8-Chloro-3-(cyclopropylmethyl)-7-(3-methoxybenzyloxy)-[1,2,4]triazolo[4,3-a]pyridine] | 40
25 | Clc1c(OCCCc2cccnc2)ccn2c(CC3CC3)nnc12 [Example 62, 8-Chloro-3-(cyclopropylmethyl)-7-(3-(pyridin-3-yl)propoxy)-[1,2,4]triazolo[4,3-a]pyridine] | 270
26 | Clc1c(OCCOc2ccccc2)ccn2c(CC3CC3)nnc12 [Example 63, 8-Chloro-3-(cyclopropylmethyl)-7-(2-phenoxyethoxy)-[1,2,4]triazolo[4,3-a]pyridine] | 100
27 | Clc1c(OCCc2ccccc2)ccn2c(CC3CC3)nnc12 [Example 64, 8-Chloro-3-(cyclopropylmethyl)-7-phenethoxy-[1,2,4]triazolo[4,3-a]pyridine] | 32
28 | COc1cc(COc2ccn3c(CC4CC4)nnc3c2Cl)ccc1F [Example 65, 8-Chloro-3-(cyclopropylmethyl)-7-(4-fluoro-3-methoxybenzyloxy)-[1,2,4]triazolo[4,3-a]pyridine] | 110
29 | Clc1ccccc1COc1ccn2c(CC3CC3)nnc2c1Cl [Example 66, 8-Chloro-7-(2-chlorobenzyloxy)-3-(cyclopropylmethyl)-[1,2,4]triazolo[4,3-a]pyridine] | 11
30 | Cc1cccc(COc2ccn3c(CC4CC4)nnc3c2Cl)c1 [Example 67, 8-Chloro-3-(cyclopropylmethyl)-7-(3-methylbenzyloxy)-[1,2,4]triazolo[4,3-a]pyridine] | 55
31 | Fc1ccccc1COc1ccn2c(CC3CC3)nnc2c1Cl [Example 68, 8-Chloro-3-(cyclopropylmethyl)-7-(2-fluorobenzyloxy)-[1,2,4]triazolo[4,3-a]pyridine] | 68
32 | Clc1ccc(COc2ccn3c(CC4CC4)nnc3c2Cl)cc1Cl [Example 69, 8-Chloro-3-(cyclopropylmethyl)-7-(3,4-dichlorobenzyloxy)-[1,2,4]triazolo[4,3-a]pyridine] | 32
33 | COc1ccc(COc2ccn3c(CC4CC4)nnc3c2Cl)cc1 [Example 70, 8-Chloro-3-(cyclopropylmethyl)-7-(4-methoxybenzyloxy)-[1,2,4]triazolo[4,3-a]pyridine] | 140
